Experiments:
[1] = tested on: wild oat; assay: Test B pre/postemergence wild oat; assay type: in vivo, Avena fatua; details: for Plant response rating, Wild oats: scale of 0 to 10 where 0 is no effect and 10 is complete control
Outline: (§1)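 Test chemicals in a non-phytotoxic solvent mixture with surfactant were sprayed preemergence onto planted seeds and postemergence onto plants 2 to 18 cm tall (1- to 4-leaf stage). After twelve to sixteen days in a greenhouse, injury was visually rated against untreated controls from 0 (no effect) to 10 (complete control).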

[2] = tested on: morningglory; assay: Test B pre/postemergence morningglory; assay type: in vivo, Ipomoea hederacea; details: for Plant response rating, Morningglory: scale of 0 to 10 where 0 is no effect and 10 is complete control
Outline: as §1

[3] = tested on: pigweed; assay: Test B pre/postemergence pigweed; assay type: in vivo, Amaranthus retroflexus; details: for Plant response rating, Redroot pigweed: scale of 0 to 10 where 0 is no effect and 10 is complete control
Outline: as §1

[4] = tested on: duck salad; assay: Test B flood test duck salad; assay type: in vivo, Heteranthera limosa
Outline: (§2)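 Read-out is a visual response score from 0 (no effect) to 10 (complete control), assigned by comparison with untreated controls. Treatment was applied at the 2-leaf stage, and plants stayed in the greenhouse for twelve to sixteen days before scoring.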

[5] = tested on: surinam grass; assay: Test B pre/postemergence surinam grass; assay type: in vivo, Brachiaria decumbens
Outline: as §1

[6] = tested on: sugar beet; assay: Test B pre/postemergence sugar beet; assay type: in vivo, Beta vulgaris; details: for Plant response rating, Sugarbeets: scale of 0 to 10 where 0 is no effect and 10 is complete control
Outline: as §1

[7] = tested on: giant foxtail; assay: Test B pre/postemergence giant foxtail; assay type: in vivo, Setaria faberii
Outline: as §1

[8] = tested on: rice; assay: Test B flood test rice; assay type: in vivo, Oryza sativa
Outline: as §2

[9] = tested on: blackgrass; assay: Test B pre/postemergence blackgrass; assay type: in vivo, Alopecurus myosuroides
Outline: as §1

[10] = tested on: cocklebur; assay: Test B pre/postemergence cocklebur; assay type: in vivo, Xanthium strumarium
Outline: as §1

[11] = tested on: velvetleaf; assay: Test B pre/postemergence velvetleaf; assay type: in vivo, Abutilon theophrasti; details: for Plant response rating, Velvetleaf: scale of 0 to 10 where 0 is no effect and 10 is complete control
Outline: as §1

[12] = tested on: crabgrass; assay: Test B pre/postemergence crabgrass; assay type: in vivo, Digitaria sanguinalis
Outline: as §1

[13] = tested on: soybean; assay: Test B pre/postemergence soybean; assay type: in vivo, Glycine max; details: for Plant response rating, Soybean: scale of 0 to 10 where 0 is no effect and 10 is complete control
Outline: as §1

[14] = tested on: rape; assay: Test B pre/postemergence rape; assay type: in vivo, Brassica napus; details: for Plant response rating, Rape: scale of 0 to 10 where 0 is no effect and 10 is complete control
Outline: as §1

[15] = tested on: purple nutsedge; assay: Test B pre/postemergence purple nutsedge; assay type: in vivo, Cyperus rotundus
Outline: as §1

[16] = tested on: corn; assay: Test B pre/postemergence corn; assay type: in vivo, Zea mays
Outline: as §1

[17] = Postemergence, Rate 250 g/ha, scale 0 to 10
[18] = Preemergence, Rate 250 g/ha, scale 0 to 10, 0 is no effect, 10 is complete control
[19] = Preemergence, Rate 500 g/ha, scale 0 to 10, 0 is no effect, 10 is complete control
[20] = Rate 62 g/ha, Postemergence, scale 0 to 10 (0 no effect, 10 complete control)
[21] = Rate 125 g/ha, Postemergence, scale 0 to 10, 0 is no effect, 10 is complete control
[22] = Rate 62 g/ha, flood test species, Pre-emergence, visual evaluation after twelve to sixteen days
[23] = Rate 125 g/ha, under heading Pre-emergence, flood test species, visual evaluation after twelve to sixteen days
[24] = Rate 250 g/ha, Pre-emergence (flood test species), scale 0 to 10, 0 is no effect, 10 is complete control
[25] = Rate 500 g/ha, Pre-emergence, flood test species, scale 0 to 10 (0 no effect, 10 complete control)
[26] = Postemergence, Rate 500 g/ha, scale of 0 to 10 where 0 is no effect and 10 is complete control
[27] = Preemergence, Rate 62 g/ha, scale of 0 to 10 where 0 is no effect and 10 is complete control
[28] = Preemergence, Rate 125 g/ha, scale of 0 to 10 where 0 is no effect and 10 is complete control

CC(C)N(C(=O)n1oc(=O)n(CC(=O)N(C)C)c1=O)c1ccc(Cl)cc1 [Compound 477]
4: B. signalgrass plant response rating [5, 18] | Soybean plant response rating [13, 19]
8: Redroot pigweed plant response rating [3, 19] | Blackgrass plant response rating [9, 19] | Plant response rating, Crabgrass [12, 27] | Plant response rating, Crabgrass [12, 28]
10: Morningglory plant response rating [2, 17] | Giant foxtail plant response rating [7, 19] | Crabgrass plant response rating [12, 18] | Crabgrass plant response rating [12, 19]
9: Giant foxtail plant response rating [7, 18]
6: Morningglory plant response rating [2, 20] | Redroot pigweed plant response rating [3, 18] | B. signalgrass plant response rating [5, 19] | Giant foxtail plant response rating [7, 17] | Plant response rating, Giant foxtail [7, 27] | Plant response rating, Giant foxtail [7, 28] | Blackgrass plant response rating [9, 17] | Blackgrass plant response rating [9, 26]
3: Soybean plant response rating [13, 18]
2: Redroot pigweed plant response rating [3, 17] | Plant response rating, B. signalgrass [5, 28] | Giant foxtail plant response rating [7, 20] | Giant foxtail plant response rating [7, 21] | Crabgrass plant response rating [12, 21] | Soybean plant response rating [13, 17] | Rape plant response rating [14, 19]
7: Wild oats plant response rating [1, 19] | Morningglory plant response rating [2, 21] | Giant foxtail plant response rating [7, 26] | Blackgrass plant response rating [9, 18] | Crabgrass plant response rating [12, 26]
5: Plant response rating, Wild oats ([1]; Preemergence, Rate 125 g/ha) | Wild oats plant response rating [1, 18] | B. signalgrass plant response rating ([5]; Postemergence, Rate 250 g/ha, scale 0 to 10, 0 no effect, 10 complete control) | B. signalgrass plant response rating [5, 26] | Crabgrass plant response rating [12, 17]
0: Wild oats plant response rating [1, 17] | Plant response rating, Wild oats ([1]; Preemergence, Rate 62 g/ha) | Wild oats plant response rating [1, 20] | Wild oats plant response rating [1, 21] | Plant response rating, Morningglory ([2]; Preemergence, Rate 62 g/ha) | Plant response rating, Morningglory ([2]; Preemergence, Rate 125 g/ha) | Morningglory plant response rating [2, 18] | Morningglory plant response rating [2, 19] | Plant response rating, Redroot pigweed ([3]; Preemergence, Rate 62 g/ha) | Redroot pigweed plant response rating [3, 20] | Redroot pigweed plant response rating [3, 21] | Plant response rating, Ducksalad (0 to 10 scale, 0 is no effect, 10 is complete control) [4, 22] | Ducksalad plant response rating (0 to 10 scale, 0 is no effect, 10 is complete control) [4, 23] | Ducksalad plant response rating [4, 24] | Ducksalad plant response rating [4, 25] | Plant response rating, B. signalgrass [5, 27] | B. signalgrass plant response rating [5, 20] | B. signalgrass plant response rating [5, 21] | Sugarbeets plant response rating [6, 17] | Plant response rating, Sugarbeets ([6]; Preemergence, Rate 62 g/ha) | Plant response rating, Sugarbeets ([6]; Preemergence, Rate 125 g/ha) | Sugarbeets plant response rating [6, 18] | Sugarbeets plant response rating [6, 19] | Sugarbeets plant response rating [6, 20] | Sugarbeets plant response rating [6, 21] | Plant response rating, Rice (0 to 10 scale, 0 is no effect, 10 is complete control) [8, 22] | Rice plant response rating (0 to 10 scale, 0 is no effect, 10 is complete control) [8, 23] | Rice plant response rating [8, 24] | Rice plant response rating [8, 25] | Plant response rating, Blackgrass [9, 27] | Blackgrass plant response rating [9, 20] | Blackgrass plant response rating [9, 21] | Cocklebur plant response rating [10, 17] | Cocklebur plant response rating [10, 26] | Plant response rating, Cocklebur [10, 27] | Plant response rating, Cocklebur [10, 28] | Cocklebur plant response rating [10, 18] | Cocklebur plant response rating [10, 19] | Cocklebur plant response rating [10, 20] | Cocklebur plant response rating [10, 21] | Velvetleaf plant response rating [11, 17] | Plant response rating, Velvetleaf ([11]; Preemergence, Rate 62 g/ha) | Plant response rating, Velvetleaf ([11]; Preemergence, Rate 125 g/ha) | Velvetleaf plant response rating [11, 18] | Velvetleaf plant response rating [11, 19] | Velvetleaf plant response rating [11, 20] | Velvetleaf plant response rating [11, 21] | Plant response rating, Soybean ([13]; Preemergence, Rate 62 g/ha) | Plant response rating, Soybean ([13]; Preemergence, Rate 125 g/ha) | Plant response rating, Rape ([14]; Preemergence, Rate 62 g/ha) | Plant response rating, Rape ([14]; Preemergence, Rate 125 g/ha) | Rape plant response rating [14, 18] | Rape plant response rating [14, 20] | Rape plant response rating [14, 21] | Nutsedge plant response rating [15, 17] | Plant response rating, Nutsedge [15, 28] | Nutsedge plant response rating [15, 18] | Nutsedge plant response rating [15, 19] | Nutsedge plant response rating [15, 20] | Nutsedge plant response rating [15, 21] | Corn plant response rating [16, 17] | Corn plant response rating [16, 26] | Plant response rating, Corn [16, 27] | Plant response rating, Corn [16, 28] | Corn plant response rating [16, 18] | Corn plant response rating [16, 19] | Corn plant response rating [16, 20] | Corn plant response rating [16, 21]
1: Plant response rating, Redroot pigweed ([3]; Preemergence, Rate 125 g/ha) | Plant response rating, Blackgrass [9, 28] | Crabgrass plant response rating [12, 20] | Soybean plant response rating [13, 20] | Soybean plant response rating [13, 21] | Rape plant response rating [14, 17]

Reference: patent US6737383B1, “Herbicidal oxadiazolidines” (priority 1999, dated 2004)
